Counter-ions that a name gives are not always drawn.
Legend:
isolated basilar artery = assay: Relaxation of isolated basilar artery contracted by 50 mM KCl; type: cell-based, Mongrel dogs; conditions: Canis lupus familiaris, 50 mM KCl contraction
Procedure: (§1) Mongrel dogs of either sex (body weight 10-17 kg) were killed by bleeding under anesthetization with pentobarbital sodium (tradename: Nembutai ® Abbott Co., USA). Thereafter, the basilar and femoral arteries were extracted and attached blood and connective tissues were carefully removed in a dish filled with Krebs bicarbonate solution (composition: NaCl 117.7 mM, KC1 4.7 mM, CaCl2 2.5 mM, MgSo4 1.2 mM, glucose 10 mM, NaHCO3 24.4 mM). Thereafter, ring preparations were made therefrom. This preparation was suspended in a bathing tube of 10 ml filled with Krebs bicarbonate solution aerated with 95 % 02 and 5 % C02.
(§2) Then, samples of basilar and femoral arteries were contracted by application of 50 mM KC1. After confirming that the contraction was sustained, (a) compound (I) (erythro form) lactate, (b) compound (I) (threo form) lactate and (c) ifenprodil; [2-(4-benzyl- piperidino-l-(4-hydroxyphenyl)propane-l-ol] tartrate were, respectively, administered as test compounds and the dose-relaxation response was examined.
(§3) A strain gauge transducer (model SB-lT manufactured by Nihon Koden Co.) was employed for recording of change of tension and isometric contraction was recorded on a recorder (model QPD 53 made by Hitachi Ltd . ) .

isolated femoral artery = assay: Relaxation of isolated femoral artery contracted by 50 mM KCl; type: cell-based, Mongrel dogs; conditions: Canis lupus familiaris, 50 mM KCl contraction
Procedure: as §1, §2, §3

CC(C(O)c1ccc(O)cc1)N1CCC(Cc2ccccc2)CC1 (stereo not drawn) [Ifenprodil tartrate]
inhibition at 50 µM (isolated basilar artery; 5 x 10^-5 M, mean, n = 4 - 5): 96.6%
inhibition at 100 µM (isolated basilar artery; 10^-4 M, mean, n = 4 - 5): 100%
inhibition at 10 µM (isolated basilar artery; 10^-5 M, mean, n = 4 - 5): 44.1%
inhibition at 1 µM (isolated basilar artery; 10^-6 M, mean, n = 4 - 5): 5.1%
inhibition at 0.1 µM (isolated basilar artery; 10^-7 M, mean, n = 4 - 5): 0.9%
EC50 (isolated basilar artery; relaxation of isolated basilar artery, read-out: ED50 (the source's name)): 11 µM
inhibition at 50 µM (isolated femoral artery; 5 x 10^-5 M, mean, n = 4 - 5): 49.8%
inhibition at 100 µM (isolated femoral artery; 10^-4 M, mean, n = 4 - 5): 75.9%
inhibition at 10 µM (isolated femoral artery; 10^-5 M, mean, n = 4 - 5): 2.8%
inhibition at 1 µM (isolated femoral artery; 10^-6 M, mean, n = 4 - 5): 0%
inhibition at 0.1 µM (isolated femoral artery; 10^-7 M, mean, n = 4 - 5): 0%
EC50 (isolated femoral artery; relaxation of isolated femoral artery, read-out: ED50 (the source's name)): 52 µM

Source: patent EP0232423A1, “CIRCULATION IMPROVING AGENT” (GRELAN PHARMACEUTICAL CO., LTD., priority 1985, dated 1987)
